pIC50: −log10 of the molar value. “Also recorded” adds a separate entry of the source. Like-named read-outs stand apart in the source and are kept apart here.
Key:
[1] = system: Hepa 1c1c7 cells; test: Hepa 1c1c7 cell viability (cytotoxicity); type: cell-based, murine; conditions: for pIC50: read-out: IC50, concentration for 50% inhibition of cell viability
[2] = system: HepG2 cells (B[α]P-DNA adducts); test: Binding of metabolically activated [3H]B[α]P to DNA of cultured HepG2 cells; type: cell-based; conditions: Homo sapiens, read-out: IC50, formation of B[α]P-DNA adducts, HepG2
Method: Effect of 4'-BF on the Binding of Metabolically Activated [^3 H]B[α]P to DNA of Cultured Cells. HepG2 cells or MCF-7 cells were plated at a density of 1×10^6 cells/dish in 6 cm Petri dishes and allowed to incubate for 18 hours. Fresh media containing test samples were added to the cells 2 hours prior to the addition of 1 μM [^3 H]B[α]P (10 Ci/mmol) The test compound and tritiated carcinogen then were incubated for 6 hours. Following incubation, genomic DNA was extracted by the method described by Sharma et al., with minor modifications. Briefly, the cells were washed three times with PBS and harvested by incubation with 0.5 ml of proteinase K (100 μg/ml) in 0.2 M Tris-0.1 M EDTA (pH 8.5) for 10 min at 37° C. The cells were gently scraped from the dishes, transferred to 50 μl of 10% SDS solution, and incubated for 3 hours at 55° C. […] An aliquot of harvested DNA was used for measuring the relative absorbencies at 260 and 280 nm (A2360 nm/A2380 nm=1.7-1.9), and the DNA content was determined by absorbance at 260 nm (1 A2360 nm unit=50 μg). The remaining sample was used for the determination of radioactivity. All experiments were performed in triplicate; percentage inhibition of carcinogen-DNA binding mediated by test samples was calculated as follows: % inhibition=[1-(dpm per μg DNA test cells/dpm per μg DNA control cells)]×100.

[3] = system: QR XRE-CAT construct, HepG2 cells; test: CAT expression in HepG2 cells transfected with QR XRE-CAT; type: cell-based, human cells; rat QR gene; conditions: 10 μM, 48 h; listed as 4'-BF
Method: (§1) Transcient Transfection Gene Expression Assay. Cultured HepG2 human hepatoma cells were transfected with three plasmid constructs (PDTD-1697CAT, XRE-CAT, ARE-CAT) containing various portions of the 5'-region of the QR gene fused to the CAT gene using the calcium phosphate precipitation method (J. Sambrook et al., Molecular cloning: A Laboratory Handbook, Ed. Chris Nolan, CHS Laboratory Press, 1989). After 4 hours of transfection, the cells were treated with 10% glycerol for 3 minutes and rinsed with PBS and switched to MEM, containing 100 units/ml penicillin G sodium, 100 units/ml streptomycin sulfate, nonessential amino acids, and 1 mM sodium pyruvate (Life Technologies Inc.) supplemented with 10% fetal bovine serum for 12-16 hours recovery. Then, test agents were added to the cells. After 48 hours of treatment with the test agents, cells were harvested with lysis buffer (Boehringer Mannheim Biochemical) and CAT protein expressions were assessed using a CAT ELISA kit (Boehringer Mannheim Biochemical). CAT enzyme expression was normalized for the protein content of each sample. All data were expressed as mean +/- SD. Means were compared using Student's t test with n=4.
This was further investigated in transient transfection experiments wherein human hepatoma cells were transfected with DNA constructs containing various portions of the 5' upstream promoter region of the QR gene linked to the CAT reporter gene by using the calcium phosphate precipitation method. Construct pDTD-1097CAT contains elements of the rat QR gene connected to the CAT construct gene. […]
(§2) In particular, FIG. 1 illustrates quantitation of CAT expression in HepG2 cells transfected with QR-CAT constructs. […] CAT expression (ng CAT/mg protein) was determined using a CAT ELISA, and the ratio of CAT expression between treated and control cells was calculated (ratio=treated/control).

[4] = system: cytochrome P4501A1; test: Effect on DMBA-induced cytochrome P4501A1 activity in rat tissues; type: in vivo, Sprague Dawley rat
Method: At 43 days of age, Sprague Dawley rats were placed on various experimental diets (Table 1) for 1 week prior to administration of a single (i.g.) dose of DMBA (15 mg). Animals then were weighed and sacrificed by CO2 asphyxiation. Tissues (livers and mammary glands) were collected, rinsed with saline, frozen in liquid nitrogen, and stored at -80° C. until analysis. Individual tissues were homogenized in 0.05 M Tris-HCl buffer (pH 7.5) containing 0.25 M sucrose. Cytosolic and microsomal fractions were obtained through differential centrifugation. Dicumarol-sensitive QR activity was measured as described above using 50 μl of suitably diluted cytosol supernatants (in duplicate). Cytochrome P4501A1-mediated EROD activities were determined as described previously in R. Poul et al. Anal. Biochem., 107, pp. 265-275 (1980) and S. Sharma et al., Cancer Res., 54, pp. 5848-5844 (1994), with slight modifications using suitably diluted microsomal protein. Enzyme activities were expressed as nmol/mg protein/min. Protein content was determined using Bradford reagent with BSA as standard, and data were presented as mean ±SE and analyzed using Student's t test (n=5).

[5] = system: quinone reductase (QR); test: Induction of quinone reductase (QR) in mouse liver and mammary glands (Table 3); type: in vivo
[6] = system: glutathione (GSH); test: Induction of glutathione (GSH) in mouse liver and mammary glands (Table 3); type: in vivo
[7] = system: pDTD-1097CAT construct (QR gene 5'-region), HepG2 cells; test: CAT expression in HepG2 cells transfected with pDTD-1097CAT; type: cell-based, human cells; rat QR gene; conditions: 10 μM, 48 h; p<0.0001
Method: as §1, with “CAT enzyme expression was normalized for the protein content of each sample.” left out, “Means were compared using Student's t test with n=4.” left out
as §2

O=c1cc(-c2ccc(Br)cc2)oc2ccccc12 [4'-Bromoflavone]
pIC50 ([1]; Hepa 1c1c7 cells): ≤ 3.78 | pIC50 ([1]; Mus musculus, Hepa-1c1c7, Hepa 1c1c7 cells): < 3.78 | times less toxic than sulforaphane ([1]; compared to sulforaphane): about 15 times | pIC50 [2]: ~5.51 | CAT expression, QR XRE-CAT [3]: Significant induction; also recorded: significantly (P<0.0001, students t test with n=4) induced | cytochrome P4501A1 activity vs control (basal diet) ([4]; liver and mammary gland, each treatment regimen): significantly induced | DMBA-induced cytochrome P4501A1 activity ([4]; liver or mammary gland, in addition to DMBA): did not significantly alter | QR (Treated/Control), Liver ([5]; liver): 5.27 | QR (Treated/Control), Mammary Gland ([5]; mammary gland): 2.66 | GSH (Treated/Control), Liver ([6]; liver): 2.11 | GSH (Treated/Control), Mammary Gland ([6]; mammary gland): 1.77 | CAT expression, pDTD-1097CAT [7]: significantly (p<0.0001) induced
